In patent US20150125889A1, “IN VITRO DETECTION OF MICROORGANISMS WITH AZOREDUCTASE ACTIVITY” (BIOMÉRIEUX, priority 2012, published 2015):

Key:
Assay in all cases: Reduction of azo substrates over 24 hours at 35° C., microtitration plate (Example 1)
Format in all cases: cell-based
Acinetobacter baumanii = system: Acinetobacter baumanii; parameters: key to RED (substrate reduced or not): RED indicates whether the substrate is reduced (Y) or not (N); RED indicates whether the substrate is reduced (Y) or not (N); key to Decol (substrate decolourized, decrease in absorbance) / Fluo (fluorescence multiplied by 2 relative to substrate-free control) / Co (growth, absorbance at 660 nm): The symbol “+” means good growth/decolourization/significant increase in fluorescence; The symbol “+/−” means difficult growth; The symbol “−” means that there is no growth/decolourization/significant increase in fluorescence; settings: A. baumannii, substrate 35 mg/l
Procedure, shortened: (§1)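 Readout: A660 for growth; substrate-specific absorbance/fluorescence for azo reduction. Trypcase soya broth, 35 mg/l substrate, 0.5 McFarland inoculum, 35° C., 24 h. Reduced = decolourization and/or fluorescence ≥2× substrate-free control.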

Enterococcus faecalis = system: Enterococcus faecalis; parameters: key to RED (substrate reduced or not): RED indicates whether the substrate is reduced (Y) or not (N); RED indicates whether the substrate is reduced (Y) or not (N); key to Decol (substrate decolourized, decrease in absorbance) / Fluo (fluorescence multiplied by 2 relative to substrate-free control) / Co (growth, absorbance at 660 nm): The symbol “+” means good growth/decolourization/significant increase in fluorescence; The symbol “+/−” means difficult growth; The symbol “−” means that there is no growth/decolourization/significant increase in fluorescence; settings: E. faecalis, substrate 35 mg/l
Procedure, shortened: as §1

Candida albicans = system: Candida albicans; parameters: key to RED (substrate reduced or not): RED indicates whether the substrate is reduced (Y) or not (N); RED indicates whether the substrate is reduced (Y) or not (N); key to Co (growth, absorbance at 660 nm) / Decol (substrate decolourized, decrease in absorbance) / Fluo (fluorescence multiplied by 2 relative to substrate-free control): The symbol “+” means good growth/decolourization/significant increase in fluorescence; The symbol “+/−” means difficult growth; The symbol “−” means that there is no growth/decolourization/significant increase in fluorescence; settings: substrate 35 mg/l
Procedure, shortened: as §1

[1] = system: Staphylococcus epidermidis; parameters: key to RED (substrate reduced or not): RED indicates whether the substrate is reduced (Y) or not (N); RED indicates whether the substrate is reduced (Y) or not (N); key to Co (growth, absorbance at 660 nm) / Decol (substrate decolourized, decrease in absorbance) / Fluo (fluorescence multiplied by 2 relative to substrate-free control): The symbol “+” means good growth/decolourization/significant increase in fluorescence; The symbol “+/−” means difficult growth; The symbol “−” means that there is no growth/decolourization/significant increase in fluorescence; settings: S. epidermidis, substrate 35 mg/l
Procedure, shortened: as §1

Escherichia coli = system: Escherichia coli; parameters: key to RED (substrate reduced or not): RED indicates whether the substrate is reduced (Y) or not (N); RED indicates whether the substrate is reduced (Y) or not (N); key to Co (growth, absorbance at 660 nm) / Decol (substrate decolourized, decrease in absorbance) / Fluo (fluorescence multiplied by 2 relative to substrate-free control): The symbol “+” means good growth/decolourization/significant increase in fluorescence; The symbol “+/−” means difficult growth; The symbol “−” means that there is no growth/decolourization/significant increase in fluorescence; settings: E. coli, substrate 35 mg/l
Procedure, shortened: as §1

Cronobacter muytjensii = system: Cronobacter muytjensii; parameters: key to RED (substrate reduced or not): RED indicates whether the substrate is reduced (Y) or not (N); RED indicates whether the substrate is reduced (Y) or not (N); key to Co (growth, absorbance at 660 nm) / Decol (substrate decolourized, decrease in absorbance) / Fluo (fluorescence multiplied by 2 relative to substrate-free control): The symbol “+” means good growth/decolourization/significant increase in fluorescence; The symbol “+/−” means difficult growth; The symbol “−” means that there is no growth/decolourization/significant increase in fluorescence; settings: E. muytjensii, substrate 35 mg/l
Procedure, shortened: as §1

Geotrichum candidum = system: Geotrichum candidum; parameters: key to RED (substrate reduced or not): RED indicates whether the substrate is reduced (Y) or not (N); RED indicates whether the substrate is reduced (Y) or not (N); key to Co (growth, absorbance at 660 nm) / Decol (substrate decolourized, decrease in absorbance) / Fluo (fluorescence multiplied by 2 relative to substrate-free control): The symbol “+” means good growth/decolourization/significant increase in fluorescence; The symbol “+/−” means difficult growth; The symbol “−” means that there is no growth/decolourization/significant increase in fluorescence; settings: G. candidum, substrate 35 mg/l
Procedure, shortened: as §1

| Structure (SMILES) | Co (growth, absorbance at 660 nm) (Acinetobacter baumanii) | Decol (substrate decolourized, decrease in absorbance) (Acinetobacter baumanii) | Fluo (fluorescence multiplied by 2 relative to substrate-free control) (Acinetobacter baumanii) | RED (substrate reduced or not) (Acinetobacter baumanii) | Co (growth, absorbance at 660 nm) (Enterococcus faecalis) | Decol (substrate decolourized, decrease in absorbance) (Enterococcus faecalis) | Fluo (fluorescence multiplied by 2 relative to substrate-free control) (Enterococcus faecalis) | RED (substrate reduced or not) (Enterococcus faecalis) | Co (growth, absorbance at 660 nm) (Candida albicans) | Decol (substrate decolourized, decrease in absorbance) (Candida albicans) | Fluo (fluorescence multiplied by 2 relative to substrate-free control) (Candida albicans) | RED (substrate reduced or not) (Candida albicans) | Co (growth, absorbance at 660 nm) [1] | Decol (substrate decolourized, decrease in absorbance) [1] | Fluo (fluorescence multiplied by 2 relative to substrate-free control) [1] | RED (substrate reduced or not) [1] | Co (growth, absorbance at 660 nm) (Escherichia coli) | Decol (substrate decolourized, decrease in absorbance) (Escherichia coli) | Fluo (fluorescence multiplied by 2 relative to substrate-free control) (Escherichia coli) | RED (substrate reduced or not) (Escherichia coli) | also measured |
| --- | --- | --- | --- | --- | --- | --- | --- | --- | --- | --- | --- | --- | --- | --- | --- | --- | --- | --- | --- | --- | --- |
| CN(C)c1ccc(N=Nc2ccc(S(=O)(=O)[O-])cc2)cc1.[Na+] [Methyl orange] | + | − | − | N | + | + | + | Y | + | − | − | N | + | − | − | N | + | − | − | N | Co (growth, absorbance at 660 nm) (Cronobacter muytjensii): +; Decol (substrate decolourized, decrease in absorbance) (Cronobacter muytjensii): −; Fluo (fluorescence multiplied by 2 relative to substrate-free control) (Cronobacter muytjensii): −; RED (substrate reduced or not) (Cronobacter muytjensii): N; Co (growth, absorbance at 660 nm) (Geotrichum candidum): +; Decol (substrate decolourized, decrease in absorbance) (Geotrichum candidum): −; Fluo (fluorescence multiplied by 2 relative to substrate-free control) (Geotrichum candidum): −; RED (substrate reduced or not) (Geotrichum candidum): N |
| O=S(=O)([O-])c1ccc(N=Nc2c(O)ccc3ccccc23)cc1.[Na+] [Orange II] | + | − | − | N | + | + | + | Y | + | − | − | N | + | − | − | N | + | − | − | N | Co (growth, absorbance at 660 nm) (Cronobacter muytjensii): +; Decol (substrate decolourized, decrease in absorbance) (Cronobacter muytjensii): −; Fluo (fluorescence multiplied by 2 relative to substrate-free control) (Cronobacter muytjensii): −; RED (substrate reduced or not) (Cronobacter muytjensii): N; Co (growth, absorbance at 660 nm) (Geotrichum candidum): +/−; Decol (substrate decolourized, decrease in absorbance) (Geotrichum candidum): −; Fluo (fluorescence multiplied by 2 relative to substrate-free control) (Geotrichum candidum): −; RED (substrate reduced or not) (Geotrichum candidum): N |
| O=C(O)c1cc(/N=N/c2ccc(-c3nc4ccccc4s3)cc2)ccc1O [BF45, 2-Phenyl-benzothiazole-4′-azo-4″- hydroxybenzene-3″-carboxylic acid] | + | − | + | Y | + | + | + | Y | + | − | − | N | + | − | + | Y | + | − | + | Y | Co (growth, absorbance at 660 nm) (Cronobacter muytjensii): +; Decol (substrate decolourized, decrease in absorbance) (Cronobacter muytjensii): −; Fluo (fluorescence multiplied by 2 relative to substrate-free control) (Cronobacter muytjensii): −; RED (substrate reduced or not) (Cronobacter muytjensii): N; Co (growth, absorbance at 660 nm) (Geotrichum candidum): +; Decol (substrate decolourized, decrease in absorbance) (Geotrichum candidum): −; Fluo (fluorescence multiplied by 2 relative to substrate-free control) (Geotrichum candidum): −; RED (substrate reduced or not) (Geotrichum candidum): N |
| CN(C)c1ccc(/N=N/c2ccccc2C(=O)O)cc1 [Methyl red] | + | + | + | Y | + | + | + | Y | + | + | + | Y | + | + | + | Y | + | + | + | Y | Co (growth, absorbance at 660 nm) (Cronobacter muytjensii): +; Decol (substrate decolourized, decrease in absorbance) (Cronobacter muytjensii): +; Fluo (fluorescence multiplied by 2 relative to substrate-free control) (Cronobacter muytjensii): +; RED (substrate reduced or not) (Cronobacter muytjensii): Y; Co (growth, absorbance at 660 nm) (Geotrichum candidum): +/−; Decol (substrate decolourized, decrease in absorbance) (Geotrichum candidum): +/−; Fluo (fluorescence multiplied by 2 relative to substrate-free control) (Geotrichum candidum): +; RED (substrate reduced or not) (Geotrichum candidum): Y |
| O=C([O-])C1=NN(c2ccc(S(=O)(=O)[O-])cc2)C(=O)C1/N=N/c1ccc(S(=O)(=O)[O-])cc1.[Na+].[Na+].[Na+] (centres unmarked) [Tartrazine] | + | − | − | N | + | + | +/− | Y | + | − | − | N | + | − | − | N | + | − | − | N | Co (growth, absorbance at 660 nm) (Cronobacter muytjensii): +; Decol (substrate decolourized, decrease in absorbance) (Cronobacter muytjensii): −; Fluo (fluorescence multiplied by 2 relative to substrate-free control) (Cronobacter muytjensii): −; RED (substrate reduced or not) (Cronobacter muytjensii): N; Co (growth, absorbance at 660 nm) (Geotrichum candidum): +/−; Decol (substrate decolourized, decrease in absorbance) (Geotrichum candidum): −; Fluo (fluorescence multiplied by 2 relative to substrate-free control) (Geotrichum candidum): −; RED (substrate reduced or not) (Geotrichum candidum): N |
